Reference: PubChem BioAssay AID602177 (NMMLSC, 2012)
The source made the active and inactive calls. No rule for the calls is given here.

Molecular target: Botulinum neurotoxin type F (Clostridium botulinum) (UniProt P30996)
Assay: concentration-response inhibition of BoNT/F LC – biochemical, cherry pick 1 compounds, dose response (AID 602177)
Settings: multiplex microsphere protease cleavage assay

Oc1[nH]c(N=C2N=c3ccccc3=N2)c2ccccc12
EC50: > 20 µM (inactive)
